Test results reported in patent EP0110955B1, “BRAIN-SPECIFIC DRUG DELIVERY” (UNIVERSITY OF FLORIDA, priority 1982, dated 1983).

Tests used:
[1] = test system: brain-dopamine concentrations; assay: Changes in brain-dopamine concentrations after intrajugular administration of 5c; format: in vivo; details: 5c administered intrajugularly, some of the rats, others practically none
Method: To determine whether dopamine itself was finally released in the brain upon completion of the aforesaid complex delivery process, 5c was administered intrajugularly and changes in brain-dopamine concentrations following that administration were studied. […] It is known that dopamine and its agonists decrease prolactin secretion following their binding to stereospecific receptors located on lactophors in the anterior pituitary (AP) gland [G.P. Mueller, J.W. Simpkins, J. Meites and K.E. Moore, Neuroendocrinology, 20, 121 (1976); W. Wuttke, E. Cassell and J Meites, Endocrinology, 88, 737 (1971); J.A. Clemens, E.B. Smalstig and C.J. Shaar, Acta Endocrinol., 79, 230 (1975)]. This effect is dose- dependent and it can also be observed in vitro, incubating anterior pituitaries with dopamine or its agonists [R.M. MacLeod Ed. L. Martini and W.F. Ganong, Raven Press].

serum prolactin = assay: In vivo effect on pituitary prolactin secretion (17-β-estradiol primed male rats); details: Intravenous administration, 1 mg/kg dose level
Text: Adult male rats (Charles Rivers, CD-1) weighing 200 to 225 g were provided food and water ad libitum for at least one week period to experimentation. To elevate serum prolactin levels, each rat received a single s.c. implant of a Silastic tube (1.57 mm interior diameter, 5 mm x 3.15 mm overall size) packed with crystalline 17-,8-estradiol. Two days later the rats were lightly anesthetized with ether and a small incision was made over the right jugular vein for intravenous (LV.) administration of the test drugs. Compound 6a was injected at a dose of 1 mg/kg body weight/ml saline and groups of six rats were decapitated at 15, 30, 60 and 120 min later to collect blood samples. Control rats (time 0) received an I.V. injection of the saline vehicle and were decapitated 30 min later. Compound 5c was dissolved in 10% ethanol in saline and was injected IV. Rats were decapitated at 15, 30 and 120 min later. Control (time 0) animals received the 10% ethanol vehicle and were sampled 30 min later.
Trunk blood was collected, allowed to clot for 2h and the serum was separated and stored at -20 ° C for subsequent assay for prolactin concentrations. Each serum sample was assayed in duplicate by the doubleantibody radioimmunoassay procedure described by the National Pituitary Agency Hormone Distribution Program. Serum prolactin concentrations are expressed in terms of the PRL-RP-2 reference preparation provided. The intraassay coefficient of variation for 10 replicate samples of pooled serum obtained from male rats was 13.8%.
The effects of compounds 5c and 6a on serum prolactin concentrations were evaluated by one-way analysis of variance and Student-Newman Keuls tests. A probability level of less than 0.05 was selected for significance. See FIGURE 7 and the discussion thereof hereinabove.

CN1C=CCC(C(=O)NCCc2ccc(OC(=O)C(C)(C)C)c(OC(=O)C(C)(C)C)c2)=C1 [5c, 1-Methyl-3-(N-[β-(3,4-dipivalyloxyphenyl)-ethyl]}carbamoyl-1,4-dihydropyridine]
increase in the dopamine concentrations [1]: up to threefold increase | time through which the reduction of serum prolactin was maintained (serum prolactin): ≥ 120 min | decrease in serum prolactin concentrations (serum prolactin; male rats exposed to 17-β-estradiol): 79%
